In patent US20260048155A1, “BIOCOMPATIBLE PARAHYDROGEN HYPERPOLARIZED SOLUTIONS BY PRECIPITATION AND RE-DISSOLUTION” (North Carolina State University, priority 2022, published 2026):

Test: Titration study of sodium pyruvate solubility / precipitation from methanol by added solvent
Format: physicochemical
Experimental: Precipitating and filtering of pyruvate from solutions using thermally polarized natural-abundance sodium pyruvate: Considering the finding of low pyruvate solubility herein, ethanol was an obvious first choice as the precipitating solvent. […] Other candidates (acetone, 1-propanol, and ethyl acetate) were tested next. All three solvents mixed with methanol and dissolved 6 mM of SABRE catalyst well. […] For each of the three solvents (FIG. 11) eight 500-μL batches of methanol containing different concentrations of pyruvate were prepared (cpyr∈[80, 60, 40, 30, 20, 8, 4, 2] mM). Then, 9.5 mL of the respective precipitating solvent were added to each sample. In all 80 mM samples, prominent and almost instantaneous precipitation was observed as the solutions lost transparency and became milky. For 1-propanol, acetone, and ethyl acetate, precipitation was visible for all mixtures with 40 mM, 20 mM, and 4 mM or more initial concentration of pyruvate, respectively. Additionally, as ethyl acetate and water are immiscible, a later purification of this solvent was expected to be advantageous (see below). Based on these observations, the rest of the study was continued with acetone and ethyl acetate.

CC(=O)C(=O)[O-].[Na+] [sodium pyruvate]
precipitation on ethanol addition (9-fold volume of ethanol added to 80 mM in methanol): no precipitation was detected | initial pyruvate concentration in methanol at which precipitation was visible (500 μL methanol + 9.5 mL 1-propanol): ≥ 40 mM | initial pyruvate concentration in methanol at which precipitation was visible (500 μL methanol + 9.5 mL acetone): ≥ 20 mM | initial pyruvate concentration in methanol at which precipitation was visible (500 μL methanol + 9.5 mL ethyl acetate): ≥ 4 mM
